Experimental data as given in patent publication US11649255B2, “Indazoles as hematopoietic progenitor kinase 1 (HPK1) inhibitors and methods using same” (1st Biotherapeutics, Inc., priority 2020, dated 2023).

Target: recombinant human HPK1 (Homo sapiens (Human), UniProt Q92918)
Assay: HPK1 kinase assay (ADP-Glo)
Format: biochemical
Details: 25 μM ATP, MBP substrate
In short: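 Activity was read as ADP formed, detected by ADP-Glo luminescence after the reaction of 5 ng recombinant human HPK1 with MBP and ATP (stocks 0.5 μg/μl and 25 μM) for 40 min at 30 °C. Buffer was Tris pH 7.5 with MgCl2, BSA and DTT, with compound in 0.5% DMSO. IC50 came from inhibition curves.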

Chain of recombinant human HPK1 (Q92918 whole entry): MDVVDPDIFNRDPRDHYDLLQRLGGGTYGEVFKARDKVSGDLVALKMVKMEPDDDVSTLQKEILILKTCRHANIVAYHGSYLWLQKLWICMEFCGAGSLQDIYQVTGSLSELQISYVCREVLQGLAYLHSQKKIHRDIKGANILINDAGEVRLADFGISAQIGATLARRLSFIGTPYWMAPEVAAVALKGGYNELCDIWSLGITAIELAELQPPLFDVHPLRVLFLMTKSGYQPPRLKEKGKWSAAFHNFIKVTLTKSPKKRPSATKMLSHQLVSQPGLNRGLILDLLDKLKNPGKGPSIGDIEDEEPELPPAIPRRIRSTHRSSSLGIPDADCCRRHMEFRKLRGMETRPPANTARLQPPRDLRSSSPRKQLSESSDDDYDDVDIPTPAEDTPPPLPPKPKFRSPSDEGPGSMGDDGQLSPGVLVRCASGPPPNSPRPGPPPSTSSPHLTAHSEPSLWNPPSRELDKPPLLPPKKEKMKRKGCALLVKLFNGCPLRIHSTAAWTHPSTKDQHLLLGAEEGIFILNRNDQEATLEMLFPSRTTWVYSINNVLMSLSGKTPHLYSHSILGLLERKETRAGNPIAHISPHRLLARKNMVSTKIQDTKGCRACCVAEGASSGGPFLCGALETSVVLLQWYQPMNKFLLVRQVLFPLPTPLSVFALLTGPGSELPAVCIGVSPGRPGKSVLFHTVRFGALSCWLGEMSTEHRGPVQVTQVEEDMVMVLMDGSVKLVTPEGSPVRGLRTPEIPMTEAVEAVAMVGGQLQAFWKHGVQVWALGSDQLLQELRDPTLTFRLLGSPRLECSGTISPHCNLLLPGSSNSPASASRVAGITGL

Row | Compound | IC50 [µM]
1 | CC(=O)c1ccc2[nH]ncc2c1-c1ccn2nc(NC(=O)[C@@H]3C[C@@H]3F)cc2c1 [Example 453, (1S,2S)-N-(5-(5-acetyl-1H-indazol-4-yl)pyrazolo[1,5-a]pyridin-2-yl)-2-fluorocyclopropane-1-carboxamide] | 0.501 to 1
2 | CN(C)c1c(F)cc2[nH]ncc2c1-c1ccn2nc(NC(=O)[C@@H]3C[C@@H]3F)cc2c1 [Example 454, (1S,2S)-N-(5-(5-(dimethylamino)-6-fluoro-1H-indazol-4-yl)pyrazolo[1,5-a]pyridin-2-yl)-2-fluorocyclopropane-1-carboxamide] | 0.101 to 0.5
3 | O=C(Nc1cc2cc(-c3c(Br)ccc4[nH]ncc34)ccn2n1)[C@@H]1C[C@@H]1F [Example 455, (1S,2S)-N-(5-(5-bromo-1H-indazol-4-yl)pyrazolo[1,5-a]pyridin-2-yl)-2-fluorocyclopropane-1-carboxamide] | < 0.1
4 | N#Cc1ccc2[nH]ncc2c1-c1ccn2nc(NC(=O)[C@@H]3C[C@@H]3F)cc2c1 [Example 456, (1S,2S)-N-(5-(5-cyano-1H-indazol-4-yl)pyrazolo[1,5-a]pyridin-2-yl)-2-fluorocyclopropane-1-carboxamide] | 0.501 to 1
5 | O=C(Nc1cc2cc(-c3c(C4CC4)c(F)cc4[nH]ncc34)ccn2n1)[C@@H]1C[C@@H]1F [Example 457, (1S,2S)-N-(5-(5-cyclopropyl-6-fluoro-1H-indazol-4-yl)pyrazolo[1,5-a]pyridin-2-yl)-2-fluorocyclopropane-1-carboxamide] | < 0.1
6 | O=C(Nc1cc2cc(-c3c(Cl)c(F)cc4[nH]ncc34)ccn2n1)[C@@H]1C[C@@H]1F [Example 458, (1S,2S)-N-(5-(5-chloro-6-fluoro-1H-indazol-4-yl)pyrazolo[1,5-a]pyridin-2-yl)-2-fluorocyclopropane-1-carboxamide] | < 0.1
7 | O=C(Nc1cc2cc(-c3c(C4CC4)ccc4[nH]ncc34)ccn2n1)[C@@H]1C[C@@H]1F [Example 459, (1S,2S)-N-(5-(5-cyclopropyl-1H-indazol-4-yl)pyrazolo[1,5-a]pyridin-2-yl)-2-fluorocyclopropane-1-carboxamide] | 0.101 to 0.5
8 | Cc1c(F)cc2[nH]ncc2c1-c1ccn2nc(NC(=O)[C@@H]3C[C@@H]3F)cc2c1 [Example 460, (1S,2S)-2-fluoro-N-(5-(6-fluoro-5-methyl-1H-indazol-4-yl)pyrazolo[1,5-a]pyridin-2-yl)cyclopropane-1-carboxamide] | < 0.1
9 | O=C(Nc1cc2cc(-c3c(CO)ccc4[nH]ncc34)ccn2n1)[C@@H]1C[C@@H]1F [Example 461, (1S,2S)-2-fluoro-N-(5-(5-(hydroxymethyl)-1H-indazol-4-yl)pyrazolo[1,5-a]pyridin-2-yl)cyclopropane-1-carboxamide] | > 1
10 | CC(C)c1c(F)cc2[nH]ncc2c1-c1ccn2nc(NC(=O)[C@@H]3C[C@@H]3F)cc2c1 [Example 462, (1S,2S)-2-fluoro-N-(5-(6-fluoro-5-isopropyl-1H-indazol-4-yl)pyrazolo[1,5-a]pyridin-2-yl)cyclopropane-1-carboxamide] | < 0.1
11 | CSc1ccc2[nH]ncc2c1-c1ccn2nc(NC(=O)[C@@H]3C[C@@H]3F)cc2c1 [Example 463, (1S,2S)-2-fluoro-N-(5-(5-(methylthio)-1H-indazol-4-yl)pyrazolo[1,5-a]pyridin-2-yl)cyclopropane-1-carboxamide] | < 0.1
12 | O=C(Nc1cc2cc(-c3c(Br)c(F)cc4[nH]ncc34)ccn2n1)[C@@H]1C[C@@H]1F [Example 464, (1S,2S)-N-(5-(5-bromo-6-fluoro-1H-indazol-4-yl)pyrazolo[1,5-a]pyridin-2-yl)-2-fluorocyclopropane-1-carboxamide] | < 0.1
13 | O=C(Nc1cc2cc(-c3c(C(F)F)ccc4[nH]ncc34)ccn2n1)[C@@H]1C[C@@H]1F [Example 465, (1S,2S)-N-(5-(5-(difluoromethyl)-1H-indazol-4-yl)pyrazolo[1,5-a]pyridin-2-yl)-2-fluorocyclopropane-1-carboxamide] | < 0.1
14 | CCc1c(F)cc2[nH]ncc2c1-c1ccn2nc(NC(=O)[C@@H]3C[C@@H]3F)cc2c1 [Example 466, (1S,2S)-N-(5-(5-ethyl-6-fluoro-1H-indazol-4-yl)pyrazolo[1,5-a]pyridin-2-yl)-2-fluorocyclopropane-1-carboxamide] | < 0.1
15 | COc1c(F)cc2[nH]ncc2c1-c1ccn2nc(NC(=O)[C@@H]3C[C@@H]3F)cc2c1 [Example 467, (1S,2S)-2-fluoro-N-(5-(6-fluoro-5-methoxy-1H-indazol-4-yl)pyrazolo[1,5-a]pyridin-2-yl)cyclopropane-1-carboxamide] | < 0.1
16 | O=C(Nc1cc2cc(-c3c(C(F)F)c(F)cc4[nH]ncc34)ccn2n1)[C@@H]1C[C@@H]1F [Example 468, (1S,2S)-N-(5-(5-(difluoromethyl)-6-fluoro-1H-indazol-4-yl)pyrazolo[1,5-a]pyridin-2-yl)-2-fluorocyclopropane-1-carboxamide] | < 0.1
17 | Cc1c(F)cc2[nH]nc(Cl)c2c1-c1ccn2nc(NC(=O)[C@@H]3C[C@@H]3F)cc2c1 [Example 469, (1S,2S)-N-(5-(3-chloro-6-fluoro-5-methyl-1H-indazol-4-yl)pyrazolo[1,5-a]pyridin-2-yl)-2-fluorocyclopropane-1-carboxamide] | < 0.1
18 | Cc1c(F)cc2[nH]nc(C)c2c1-c1ccn2nc(NC(=O)[C@@H]3C[C@@H]3F)cc2c1 [Example 470, (1S,2S)-2-fluoro-N-(5-(6-fluoro-3,5-dimethyl-1H-indazol-4-yl)pyrazolo[1,5-a]pyridin-2-yl)cyclopropane-1-carboxamide] | 0.101 to 0.5
19 | CSc1n[nH]c2cc(F)c(C)c(-c3ccn4nc(NC(=O)[C@@H]5C[C@@H]5F)cc4c3)c12 [Example 471, (1S,2S)-2-fluoro-N-(5-(6-fluoro-5-methyl-3-(methylthio)-1H-indazol-4-yl)pyrazolo[1,5-a]pyridin-2-yl)cyclopropane-1-carboxamide] | 0.101 to 0.5
20 | C#Cc1n[nH]c2cc(F)c(C)c(-c3ccn4nc(NC(=O)[C@@H]5C[C@@H]5F)cc4c3)c12 [Example 472, (1S,2S)-N-(5-(3-ethynyl-6-fluoro-5-methyl-1H-indazol-4-yl)pyrazolo[1,5-a]pyridin-2-yl)-2-fluorocyclopropane-1-carboxamide] | > 1
21 | Cc1c(F)cc2[nH]nc(C3CC3)c2c1-c1ccn2nc(NC(=O)[C@@H]3C[C@@H]3F)cc2c1 [Example 473, (1S,2S)-N-(5-(3-cyclopropyl-6-fluoro-5-methyl-1H-indazol-4-yl)pyrazolo[1,5-a]pyridin-2-yl)-2-fluorocyclopropane-1-carboxamide] | > 1
22 | C=Cc1n[nH]c2cc(F)c(C)c(-c3ccn4nc(NC(=O)[C@@H]5C[C@@H]5F)cc4c3)c12 [Example 474, (1S,2S)-2-fluoro-N-(5-(6-fluoro-5-methyl-3-vinyl-1H-indazol-4-yl)pyrazolo[1,5-a]pyridin-2-yl)cyclopropane-1-carboxamide] | 0.101 to 0.5
23 | CCc1n[nH]c2cc(F)c(C)c(-c3ccn4nc(NC(=O)[C@@H]5C[C@@H]5F)cc4c3)c12 [Example 475, (1S,2S)-N-(5-(3-ethyl-6-fluoro-5-methyl-1H-indazol-4-yl)pyrazolo[1,5-a]pyridin-2-yl)-2-fluorocyclopropane-1-carboxamide] | > 1
